Data taken from PMC8286840, “Identifying SARS-CoV-2 antiviral compounds by screening for small molecule inhibitors of Nsp3 papain-like protease” (Biochemical Journal, 2021).
Where a name gives a salt, the structure may show the parent alone. Read-outs that look alike come from different tables or passages of the source. Where a SMILES comes first, the peptide text is derived from it. Where no end group is shown, it is not given here. [ ]: non-standard residue; d: D form. dPhe(4-Cl) = N[C@H](Cc1ccc(Cl)cc1)C(=O)O; d2Nal = N[C@H](Cc1ccc2ccccc2c1)C(=O)O; Lys(iPr) = CC(C)NCCCC[C@H](N)C(=O)O; NMeY = CN[C@@H](Cc1ccc(O)cc1)C(=O)O; d3Pal = N[C@H](Cc1cccnc1)C(=O)O

Assays:
[1] = biological target: T1, SARS-CoV-2 PLpro (nsp3 1564–1878) (Severe acute respiratory syndrome coronavirus 2, UniProt P0DTD1); test: biochemical; parameters: FRET-quenched peptide (Pro3) cleavage by PLpro, 10 min pre-incubation, slope over 20 min, normalised to no-compound control; conditions: high concentration screen, read-out: % of control remaining
[2] = biological target: T1, SARS-CoV-2 PLpro (nsp3 1564–1878); test: biochemical; parameters: FRET-quenched peptide (Pro3) cleavage by PLpro, 10 min pre-incubation, slope over 20 min, normalised to no-compound control; conditions: low concentration screen, read-out: % of control remaining

Molecule: Cc1ccc(OCCSc2ncccn2)c(Br)c1 [2-{[2-(2-bromo-4-methylphenoxy)ethyl]sulfanyl}pyrimidine]
- remaining activity at 3.75 µM ([1]; Well no.=6035): 94.6%
- remaining activity at 1.25 µM ([2]; Well no.=6035): 95.4%

Molecule: CC(=O)[C@H]1CC[C@H]2[C@@H]3CC[C@H]4C[C@](C)(O)CC[C@]4(C)[C@H]3CC[C@]12C [Ganaxolone]
- remaining activity at 3.75 µM ([1]; Well no.=5901): 94%
- remaining activity at 1.25 µM ([2]; Well no.=5901): 96.3%

Molecule: N[C@H](CO)C(=O)O [(R)-Serine]
- remaining activity at 3.75 µM ([1]; Well no.=7739): 100%
- remaining activity at 1.25 µM ([2]; Well no.=7739): 99.9%

Molecule: C#CCCCCCCCCCCCCCCCC(=O)O [17-Octadecynoic acid]
- remaining activity at 3.75 µM ([1]; Well no.=4351): 104%
- remaining activity at 1.25 µM ([2]; Well no.=4351): 105%

Molecule: c1ccc2c(c1)N=C(N1CCNCC1)c1ccccc1N2 [DREADD agonist 21]
- remaining activity at 3.75 µM ([1]; Well no.=6943): 100%
- remaining activity at 1.25 µM ([2]; Well no.=6943): 96.4%

Molecule: N=C(N)NC(=O)c1nc(Cl)c(N)nc1N [Amiloride hydrochloride]
- remaining activity at 3.75 µM ([1]; Well no.=148): 94.6%
- remaining activity at 1.25 µM ([2]; Well no.=148): 96.9%

Molecule: CC(=O)N[C@H](Cc1ccc2ccccc2c1)C(=O)N[C@H](Cc1ccc(Cl)cc1)C(=O)N[C@H](Cc1cccnc1)C(=O)N[C@@H](CO)C(=O)N(C)[C@@H](Cc1ccc(O)cc1)C(=O)N[C@H](CC(N)=O)C(=O)N[C@@H](CC(C)C)C(=O)N[C@@H](CCCCNC(C)C)C(=O)N1CCC[C@H]1C(=O)N[C@H](C)C(N)=O [Abarelix] (Ac-[d2Nal][dPhe(4-Cl)][d3Pal]S[NMeY][dN]L[Lys(iPr)]P[dA]-NH2)
- remaining activity at 3.75 µM ([1]; Well no.=6560): 98.6%
- remaining activity at 1.25 µM ([2]; Well no.=6560): 95.8%

Molecule: CO/N=C(\C(=O)N[C@@H]1C(=O)N2C(C(=O)O)=C(CSC(=O)c3ccco3)CS[C@H]12)c1csc(N)n1 [Ceftiofur HCl]
- remaining activity at 3.75 µM ([1]; Well no.=5288): 91.7%
- remaining activity at 1.25 µM ([2]; Well no.=5288): 90.5%

Molecule: CN1[C@@H]2CC(O)C[C@H]1[C@@H]1O[C@@H]12 (stereo partly shown) [Scopine (hydrochloride)]
- remaining activity at 3.75 µM ([1]; Well no.=6555): 101%
- remaining activity at 1.25 µM ([2]; Well no.=6555): 94.2%

Molecule: O=C1C[C@@H](c2ccc(O)cc2)Oc2cc(O)cc(O)c21 [Naringenin]
- remaining activity at 3.75 µM ([1]; Well no.=3326): 98.3%
- remaining activity at 1.25 µM ([2]; Well no.=3326): 96.4%

Molecule: COc1cc(NC(=O)c2ccc(-c3ccc(Cl)cc3)o2)cc(OC)c1 [A-803467]
- remaining activity at 3.75 µM ([1]; Well no.=5117): 103%
- remaining activity at 1.25 µM ([2]; Well no.=5117): 105%

Molecule: CCCCCCCC(=O)OC[C@H](CO)OC(=O)CCCCCCC [1,2-Dioctanoyl-SN-glycerol]
- remaining activity at 3.75 µM ([1]; Well no.=4476): 107%
- remaining activity at 1.25 µM ([2]; Well no.=4476): 103%

Molecule: O=c1[nH]cnc2c1ncn2[C@@H]1O[C@H](CO)[C@@H](O)[C@H]1O [Inosine]
- remaining activity at 3.75 µM ([1]; Well no.=5250): 92.9%
- remaining activity at 3.75 µM ([1]; Well no.=6147): 100%
- remaining activity at 3.75 µM ([1]; Well no.=8835): 89.2%
- remaining activity at 1.25 µM ([2]; Well no.=5250): 92.9%
- remaining activity at 1.25 µM ([2]; Well no.=6147): 105%
- remaining activity at 1.25 µM ([2]; Well no.=8835): 92.8%

Molecule: Cc1c[nH]c(/C=C2\C(=O)Nc3ccccc32)c1CCC(=O)O [SU-5402]
- remaining activity at 3.75 µM ([1]; Well no.=3037): 95.9%
- remaining activity at 1.25 µM ([2]; Well no.=3037): 96.3%

Molecule: CS(=O)(=O)N1CCN(Cc2cc3nc(-c4cccc5[nH]ncc45)nc(N4CCOCC4)c3s2)CC1 [GDC-0941]
- remaining activity at 3.75 µM ([1]; Well no.=2801): 101%
- remaining activity at 1.25 µM ([2]; Well no.=2801): 103%

Molecule: C[C@H](Cc1ccc2c(c1)OC(C(=O)O)(C(=O)O)O2)NC[C@H](O)c1cccc(Cl)c1 [CL 316,243]
- remaining activity at 3.75 µM ([1]; Well no.=276): 101%
- remaining activity at 1.25 µM ([2]; Well no.=276): 96.9%

Molecule: COc1cc2ncnc(Nc3ccc(Oc4ccccc4)cc3)c2cc1OC [Src Kinase Inhibitor I]
- remaining activity at 3.75 µM ([1]; Well no.=2563): 99.3%
- remaining activity at 1.25 µM ([2]; Well no.=2563): 99.2%

Molecule: Nc1nc(Nc2ccccc2)nc2c1ncn2[C@@H]1O[C@H](CO)[C@@H](O)[C@H]1O [2-Phenylaminoadenosine]
- remaining activity at 3.75 µM ([1]; Well no.=1213): 106%
- remaining activity at 1.25 µM ([2]; Well no.=1213): 102%

Molecule: CC(=O)N[C@@H](CC(=O)O)C(=O)O [N-Acetyl-L-aspartic acid]
- remaining activity at 3.75 µM ([1]; Well no.=6645): 98.5%
- remaining activity at 3.75 µM ([1]; Well no.=7690): 96.5%
- remaining activity at 1.25 µM ([2]; Well no.=6645): 98.3%
- remaining activity at 1.25 µM ([2]; Well no.=7690): 101%

Molecule: CC(C)C[C@H](NC(=O)CNC(=O)c1cc(Cl)ccc1Cl)B1OC(=O)C(CC(=O)O)(CC(=O)O)O1 [MLN9708]
- remaining activity at 3.75 µM ([1]; Well no.=4810): 103%
- remaining activity at 1.25 µM ([2]; Well no.=4810): 101%

Molecule: COc1cc(/C=C/C(=O)CC(=O)/C=C/c2ccc(O)c(OC)c2)ccc1O [Curcumin]
- remaining activity at 3.75 µM ([1]; Well no.=3177): 105%
- remaining activity at 3.75 µM ([1]; Well no.=3949): 102%
- remaining activity at 1.25 µM ([2]; Well no.=3177): 112%
- remaining activity at 1.25 µM ([2]; Well no.=3949): 106%

Molecule: N=C(N)c1ccccc1 [Benzamidine hydrochloride]
- remaining activity at 3.75 µM ([1]; Well no.=223): 99%
- remaining activity at 1.25 µM ([2]; Well no.=223): 99.2%

Molecule: CCN(CC)CCNC(=O)c1ccc(N)cc1 [Procainamide hydrochloride]
- remaining activity at 3.75 µM ([1]; Well no.=1307): 98.9%
- remaining activity at 1.25 µM ([2]; Well no.=1307): 96.8%

Molecule: RPPGFSPFR [Bradykinin]
- remaining activity at 3.75 µM ([1]; Well no.=8439): 95.2%
- remaining activity at 1.25 µM ([2]; Well no.=8439): 98.7%

Molecule: CNCC(O)c1ccc(O)cc1 (racemic)
- remaining activity at 3.75 µM ([1]; Well no.=1356): 104%
- remaining activity at 1.25 µM ([2]; Well no.=1356): 102%

Molecule: COc1cc2c(cc1Cc1cccc(Cl)c1F)c(=O)c(C(=O)O)cn2[C@H](CO)C(C)C [Elvitegravir (GS-9137)]
- remaining activity at 3.75 µM ([1]; Well no.=5008): 101%
- remaining activity at 1.25 µM ([2]; Well no.=5008): 99.3%

Molecule: N#Cc1c(N)nc(SCc2csc(-c3ccc(Cl)cc3)n2)c(C#N)c1-c1ccc(OCCO)cc1 [Capadenoson]
- remaining activity at 3.75 µM ([1]; Well no.=8649): 102%
- remaining activity at 1.25 µM ([2]; Well no.=8649): 106%

Molecule: CCn1cc(C(=O)O)c(=O)c2cc(F)c(N3CCNCC3)cc21 [Norfloxacin]
- remaining activity at 3.75 µM ([1]; Well no.=2043): 105%
- remaining activity at 1.25 µM ([2]; Well no.=2043): 109%

Molecule: Clc1ccccc1C(c1ccccc1)(c1ccccc1)n1cccn1 [TRAM-34]
- remaining activity at 3.75 µM ([1]; Well no.=4707): 103%
- remaining activity at 1.25 µM ([2]; Well no.=4707): 107%

Molecule: O=C(O)CNC(=O)C(CS)Cc1ccccc1 (racemic) [DL-Thiorphan]
- remaining activity at 3.75 µM ([1]; Well no.=1243): 104%
- remaining activity at 1.25 µM ([2]; Well no.=1243): 103%

Molecule: O=C(COc1cccc2c(=O)[nH]ccc12)c1ccccc1 [UPF 1069]
- remaining activity at 3.75 µM ([1]; Well no.=4828): 96.4%
- remaining activity at 1.25 µM ([2]; Well no.=4828): 94.8%

Molecule: c1ccc(NCc2ccc(CNc3ccccn3)cc2)nc1 [WZ811]
- remaining activity at 3.75 µM ([1]; Well no.=7135): 96.2%
- remaining activity at 3.75 µM ([1]; Well no.=8459): 88.4%
- remaining activity at 1.25 µM ([2]; Well no.=7135): 102%
- remaining activity at 1.25 µM ([2]; Well no.=8459): 98.2%

Molecule: CN(C)CCC(c1ccc(Br)cc1)c1ccccn1 (single isomer, unassigned; (+)) [(+)-Brompheniramine maleate]
- remaining activity at 3.75 µM ([1]; Well no.=365): 98.5%
- remaining activity at 1.25 µM ([2]; Well no.=365): 98.9%
